From patent US10196401B2, “Spiro-lactam NMDA receptor modulators and uses thereof” (Aptinyx Inc., priority 2016, dated 2019)

Columns and labels:
NMDAR2C = NMDAR2C (Homo sapiens, UniProt Q14957); test: Potentiation of [3H]MK-801 binding, NMDAR2C; parameters: species or system rat; conditions: for % 1 mM Glycine: relative to 1 mM glycine
Sprague Dawley rats = test: Blast-induced traumatic brain injury/cognitive deficits measured by PEL; assay type: in vivo, rat; conditions: 10 mg/kg PO 1 h post-blast; PEL 48 hours post-blast
Source text: Single blast-induced traumatic brain injury/cognitive deficits were induced, modified for use in rats according to the protocol of Goldstein et al., “Chronic traumatic encephalopathy in blast-exposed military veterans and a blast neurotrauma mouse model,” Science Translational Medicine, Vol. 4, Issue 134, pp. 134ra60, 2012. Male 2-3 month old Sprague Dawley rats were used. Rats were housed in Lucite cages with aspen wood chip bedding, maintained on a 12:12 light:dark cycle (lights on at 5 AM), and given ad libitum access to Purina lab chow (USA) and tap water throughout the study. Rats were first anesthetized using 3.5-4% isoflurane, then the ears were protected with 1.5×1.5 mm foam plugs (Pura-Fit®, Moldex-Metric Inc., Culver City, Calif.), and the rat was placed into a head access rodent thoracic restrainer (Stoelting, USA) to protect the body while allowing the head to move freely. […]
PEL (Positive emotional learning) was conducted 48 hours post-blast. […] High frequency ultrasonic vocalizations (USVs) were recorded and analyzed by sonogram with Avasoft SASlab Pro (Germany) as previously described by Burgdorf et al., “Positive emotional learning is regulated in the medial prefrontal cortex by GluN2B-containing NMDA receptors,” Neuroscience, 192:515-523, 2011. Frequency raodulated 50-kH-z USVs that occurred during each the no-stimulation periods were quantified to measure PEL. […]

NMDAR2D = NMDAR2D (Homo sapiens, UniProt O15399); test: Potentiation of [3H]MK-801 binding, NMDAR2D; parameters: species or system rat; conditions: for Conclusion / % 1 mM Glycine: NMDAR2D binding profile; for % 1 mM Glycine: relative to 1 mM glycine; for potentiation of [3H]MK-801 binding, subtype preference in words: NR2D, FIG. 2 / FIG. 6
Description: Assays were conducted as described by Moskal et al., “GLYX-13: a monoclonal antibody-derived peptide that acts as an N-rnethyl-D-aspartate receptor modulator,” Neuropharmacology, 49, 1077-87, 2005. The potentiation of [^3H]MK-801 binding (5 nrM; 22.5 Ci/mmol) to well washed rat cortical membranes (200 μg) was measured under non-equilibrium conditions (15 min @ 25° C.) in the presence of increasing concentrations of Compound A.
Assays were conducted as described above in Example 5, by Moskal et al. (2005).

rats = test: Positive emotional learning (PEL) test, rat 50-kHz ultrasonic vocalizations (USVs); assay type: in vivo
Description: Experiments were conducted as described in Burgdorf et al., “The effect of selective breeding for differential rates of 50-kHz ultrasonic vocalizations on emotional behavior in rats,” Devel. Psychobiol., 51:34-46 (2009). Rat 50-kHz ultrasonic vocalization (hedonic USVs) is a validated model for the study of positive affective state and is best elicited by rough-and-tumble play.
The PEL assay measures the acquisition of positive (hedonic) 50-kHz ultrasonic vocalizations (USVs) to a social stimulus, heterospecific rough and tumble play stimulation. Heterospecific rough-and-tumble play stimulation was administered by the experimenter's right hand. […] High frequency ultrasonic vocalizations (USVs) were recorded and analyzed by sonogram with Avasoft SASlab Pro (Germany) as previously described by Burgdorf et al., “Positive emotional learning is regulated in the medial prefrontal cortex by GluN2B-containing NMDA receptors,” Neuroscience, 192:515-523 (2011). Frequency modulated 50-kHz USVs that occurred during each of the no-stimulation periods were quantified to measure PEL. […] Positive emotional learning was measured during the conditioned stimulus (CS) trials preceding the tickle unconditioned stimulus (UCS) trials. […] Running speed for animals to self administer tickling at the end of the 3 min session was also measured. […]

[1] = Microsomal stability, human; assay type: in vitro ADME
Description: Microsomal and plasma stability of Compound A was investigated. The following table indicates the percent of Compound A remaining after 60 minutes.
Microsomal and plasma stability of Compound B was investigated. The following table indicates the percent of Compound B remaining after 60 minutes.

NMDAR2B = NMDAR2B (Homo sapiens, UniProt Q13224); test: Potentiation of [3H]MK-801 binding, NMDAR2B; parameters: species or system rat; conditions: for % 1 mM Glycine: relative to 1 mM glycine
[2] = Plasma protein binding, human; assay type: in vitro ADME; conditions: read-out: plasma protein binding (% bound) (converted)
Description: Unbound drug concentration in the brain was also investigated, and plasma protein binding assays were conducted. The following table (% bound) indicates results for Compound A.
Unbound drug concentration in the brain was also investigated, and plasma protein binding assays were conducted. The following table (% bound) indicates results for Compound B.

Chain of NMDAR2D (O15399 28-1336, species assumed, other chains not shown): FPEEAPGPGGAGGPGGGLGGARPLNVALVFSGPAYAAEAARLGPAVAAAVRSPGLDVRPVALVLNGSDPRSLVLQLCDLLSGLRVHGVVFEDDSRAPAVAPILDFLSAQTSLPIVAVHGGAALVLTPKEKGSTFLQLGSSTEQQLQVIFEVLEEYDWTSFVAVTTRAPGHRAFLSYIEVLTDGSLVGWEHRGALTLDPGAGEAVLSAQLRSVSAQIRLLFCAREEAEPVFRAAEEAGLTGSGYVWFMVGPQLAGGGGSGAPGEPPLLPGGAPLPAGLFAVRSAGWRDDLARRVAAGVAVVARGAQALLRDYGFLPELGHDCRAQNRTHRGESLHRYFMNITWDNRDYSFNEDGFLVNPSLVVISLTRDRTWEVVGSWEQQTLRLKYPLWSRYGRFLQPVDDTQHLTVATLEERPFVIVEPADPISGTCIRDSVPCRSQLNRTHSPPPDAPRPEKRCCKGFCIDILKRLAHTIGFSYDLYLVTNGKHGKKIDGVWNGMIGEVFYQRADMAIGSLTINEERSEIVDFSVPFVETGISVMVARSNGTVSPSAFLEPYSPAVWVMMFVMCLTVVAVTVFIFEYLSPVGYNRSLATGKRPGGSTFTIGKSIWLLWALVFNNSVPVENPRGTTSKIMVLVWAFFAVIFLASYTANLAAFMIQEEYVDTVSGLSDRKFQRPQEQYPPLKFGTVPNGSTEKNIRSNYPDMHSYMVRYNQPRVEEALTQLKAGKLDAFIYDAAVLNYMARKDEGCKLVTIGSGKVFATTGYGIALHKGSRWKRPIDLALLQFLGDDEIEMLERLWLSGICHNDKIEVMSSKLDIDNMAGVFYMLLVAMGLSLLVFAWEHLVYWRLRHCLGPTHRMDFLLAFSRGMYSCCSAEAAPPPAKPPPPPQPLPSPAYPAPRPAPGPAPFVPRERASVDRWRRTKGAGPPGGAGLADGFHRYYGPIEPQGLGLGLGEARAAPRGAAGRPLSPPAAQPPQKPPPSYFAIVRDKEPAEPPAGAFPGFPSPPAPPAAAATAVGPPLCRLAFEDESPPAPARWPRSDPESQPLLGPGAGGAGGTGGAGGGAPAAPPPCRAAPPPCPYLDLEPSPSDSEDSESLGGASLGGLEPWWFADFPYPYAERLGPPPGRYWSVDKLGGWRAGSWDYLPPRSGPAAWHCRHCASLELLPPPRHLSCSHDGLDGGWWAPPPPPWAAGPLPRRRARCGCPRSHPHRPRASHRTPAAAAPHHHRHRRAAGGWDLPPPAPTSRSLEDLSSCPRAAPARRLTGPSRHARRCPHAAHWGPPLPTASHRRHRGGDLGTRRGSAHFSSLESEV
Chain of NMDAR2B (Q13224 27-1484, species assumed, other chains not shown): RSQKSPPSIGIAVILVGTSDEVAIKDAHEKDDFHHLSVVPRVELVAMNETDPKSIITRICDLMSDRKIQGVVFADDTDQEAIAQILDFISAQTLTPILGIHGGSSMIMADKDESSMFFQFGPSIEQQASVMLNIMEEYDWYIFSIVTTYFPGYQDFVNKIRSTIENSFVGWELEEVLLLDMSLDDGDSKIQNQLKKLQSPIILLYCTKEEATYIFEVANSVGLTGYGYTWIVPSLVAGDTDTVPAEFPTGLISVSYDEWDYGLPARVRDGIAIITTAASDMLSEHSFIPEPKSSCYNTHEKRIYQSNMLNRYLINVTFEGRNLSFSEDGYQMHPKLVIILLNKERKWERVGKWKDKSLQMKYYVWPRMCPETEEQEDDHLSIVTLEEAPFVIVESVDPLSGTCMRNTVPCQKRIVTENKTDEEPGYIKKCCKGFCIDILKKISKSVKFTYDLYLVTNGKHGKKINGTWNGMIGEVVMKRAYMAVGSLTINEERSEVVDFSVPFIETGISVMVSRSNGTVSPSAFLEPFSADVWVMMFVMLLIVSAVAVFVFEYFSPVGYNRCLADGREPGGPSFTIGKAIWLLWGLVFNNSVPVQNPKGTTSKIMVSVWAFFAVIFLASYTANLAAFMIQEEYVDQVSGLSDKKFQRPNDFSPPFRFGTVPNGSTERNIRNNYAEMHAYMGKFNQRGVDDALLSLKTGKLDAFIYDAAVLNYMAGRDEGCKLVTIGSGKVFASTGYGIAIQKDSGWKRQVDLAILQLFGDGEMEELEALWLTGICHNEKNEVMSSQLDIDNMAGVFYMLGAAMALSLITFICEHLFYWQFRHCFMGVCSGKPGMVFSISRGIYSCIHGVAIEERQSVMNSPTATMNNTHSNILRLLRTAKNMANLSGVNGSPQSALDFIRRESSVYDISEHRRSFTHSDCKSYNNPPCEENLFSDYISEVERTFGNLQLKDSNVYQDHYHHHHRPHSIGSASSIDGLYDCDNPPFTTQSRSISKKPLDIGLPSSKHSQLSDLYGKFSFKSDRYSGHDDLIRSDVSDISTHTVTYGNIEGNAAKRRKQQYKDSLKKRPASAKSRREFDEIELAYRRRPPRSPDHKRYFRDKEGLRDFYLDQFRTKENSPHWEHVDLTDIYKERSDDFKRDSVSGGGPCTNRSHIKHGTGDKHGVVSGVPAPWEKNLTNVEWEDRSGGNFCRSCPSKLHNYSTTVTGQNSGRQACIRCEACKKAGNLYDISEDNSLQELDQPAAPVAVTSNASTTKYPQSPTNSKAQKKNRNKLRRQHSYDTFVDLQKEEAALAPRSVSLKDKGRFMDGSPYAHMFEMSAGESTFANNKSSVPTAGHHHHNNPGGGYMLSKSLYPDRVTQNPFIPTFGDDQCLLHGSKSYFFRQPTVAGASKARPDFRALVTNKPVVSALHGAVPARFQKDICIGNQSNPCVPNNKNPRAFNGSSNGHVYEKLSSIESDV
Chain of NMDAR2C (Q14957 20-1233, species assumed, other chains not shown): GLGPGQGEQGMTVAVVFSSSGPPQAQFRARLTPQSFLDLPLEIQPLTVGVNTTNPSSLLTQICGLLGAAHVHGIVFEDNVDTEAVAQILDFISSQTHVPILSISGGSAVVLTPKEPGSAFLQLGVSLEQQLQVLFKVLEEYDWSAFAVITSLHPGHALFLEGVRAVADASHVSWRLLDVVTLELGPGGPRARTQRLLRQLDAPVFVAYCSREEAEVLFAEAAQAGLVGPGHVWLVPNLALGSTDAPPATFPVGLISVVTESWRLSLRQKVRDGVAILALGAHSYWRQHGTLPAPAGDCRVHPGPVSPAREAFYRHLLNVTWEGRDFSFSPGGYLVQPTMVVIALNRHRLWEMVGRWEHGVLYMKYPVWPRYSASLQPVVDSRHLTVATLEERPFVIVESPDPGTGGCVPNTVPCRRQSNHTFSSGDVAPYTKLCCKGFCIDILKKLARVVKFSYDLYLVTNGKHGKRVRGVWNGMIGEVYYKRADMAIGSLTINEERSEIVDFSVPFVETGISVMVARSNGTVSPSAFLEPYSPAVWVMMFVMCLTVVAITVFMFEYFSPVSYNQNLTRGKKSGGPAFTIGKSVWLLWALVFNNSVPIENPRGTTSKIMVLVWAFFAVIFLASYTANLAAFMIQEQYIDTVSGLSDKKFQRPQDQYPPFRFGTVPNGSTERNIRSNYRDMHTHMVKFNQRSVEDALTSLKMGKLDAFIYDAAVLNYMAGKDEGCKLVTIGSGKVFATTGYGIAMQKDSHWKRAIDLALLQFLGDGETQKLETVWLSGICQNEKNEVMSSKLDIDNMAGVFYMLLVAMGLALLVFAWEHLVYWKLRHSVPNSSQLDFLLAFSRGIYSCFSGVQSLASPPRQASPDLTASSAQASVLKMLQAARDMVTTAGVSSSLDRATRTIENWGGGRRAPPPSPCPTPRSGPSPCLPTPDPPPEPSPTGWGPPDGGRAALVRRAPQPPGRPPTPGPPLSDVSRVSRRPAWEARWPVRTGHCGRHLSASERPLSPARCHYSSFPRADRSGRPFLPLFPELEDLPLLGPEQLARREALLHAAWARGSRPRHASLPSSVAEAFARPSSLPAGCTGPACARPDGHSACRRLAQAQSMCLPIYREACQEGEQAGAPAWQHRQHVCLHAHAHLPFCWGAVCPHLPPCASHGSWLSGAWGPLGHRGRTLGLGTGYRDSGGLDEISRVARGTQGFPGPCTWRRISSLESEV

SMILES	Conclusion (NMDAR2C; NMDAR2C binding profile)	EC50 (NMDAR2C; NMDAR2C binding profile, wild-type)	% 1 mM Glycine (NMDAR2C; NMDAR2C binding profile)	blast-induced cognitive deficits as measured by PEL (Sprague Dawley rats)	Conclusion (NMDAR2D)	% 1 mM Glycine (NMDAR2D)	potentiation of [3H]MK-801 binding, subtype preference in words (NMDAR2D)	positive emotional learning as measured by rat USVs (rats; administered one hour prior to PEL testing)	Microsomal stability, percent remaining after 60 minutes [1]	Conclusion (NMDAR2B; NMDAR2B binding profile)	EC50 (NMDAR2B; NMDAR2B binding profile, wild-type)	% 1 mM Glycine (NMDAR2B; NMDAR2B binding profile)	fraction unbound [2]	potentiation of [3H]MK-801 binding, subtype preference in words (NMDAR2C; NR2C, FIG. 6)	positive emotional learning in the rat USVs test (rats; rat, in vivo)	potentiation of [3H]MK-801 binding, subtype preference in words (NMDAR2B; NR2B, FIG. 6)
CC(C)CN1CCC[C@]12CN([C@H](C(N)=O)[C@@H](C)O)C2=O [Compound A, (2S,3R)-3-hydroxy-2-((R)-5-isobutyl-1-oxo-2,5-diazaspiro[3.4]octan-2-yl)butanamide]	WT2C agonist	1.51 nM	66.21%	reversed blast-induced cognitive deficits	WT2D no	0%	no binding to NR2D	increases positive emotional learning	86%	WT2B agonist	3.09 nM	68.22%	0.741	–	–	–
CC(C)CN1CCC[C@@]12CN([C@H](C(N)=O)[C@@H](C)O)C2=O [Compound B, (2S,3R)-3-hydroxy-2-((S)-5-isobutyl-1-oxo-2,5-diazaspiro[3.4]octan-2-yl)butanamide]	WT2C agonist	–	85.37%	reversed blast-induced cognitive deficits	agonist	66.21%	highly NR2B and NR2D preferring	–	87%	WT2B agonist	–	49.02%	0.712	lower potency in NR2A and NR2C	increases positive emotional learning	highly NR2B and NR2D preferring
